Measured values from US20040096465A1, “Novel receptors for $1(helicobater pyroli) and use thereof” (priority 2001, published 2004).
“Also recorded” adds a separate entry of the source.

Key:
Helicobacter pylori [1] = assay: TLC bacterial overlay assay with 35S-labeled Helicobacter pylori; type: binding; settings: for binding activity of neoglycolipid with regard to Helicobacter pylori: oligosaccharide reductively aminated with 4-hexadecylaniline (HDA); for lowest amount of glycolipid giving a positive response on TLC plates: dilution series, semi-quantitative, evaluated visually, pentaglycosylceramide mean of 7 experiments; for binding of Helicobacter pylori to the glycosphingolipid on TLC plates: overlay with 35S-labeled bacteria, autoradiography, visual evaluation; for binding frequency / binding of Helicobacter pylori strain 032 to purified glycosphingolipids (FIGS. 7A and 7B): strain 032; for binding frequency: total number of plates about 100; for binding of Helicobacter pylori strain 032 to purified glycosphingolipids (FIGS. 7A and 7B): 4 μg per lane, autoradiography 72 h
[2] = test system: Helicobacter pylori binding to human gastrointestinal cell lines; settings: Simon et al.; cited from earlier work
Helicobacter pylori [3] = settings: Mysore et al.; cited from earlier work

For `CCCCCCCCCCCCCCCCc1ccc(NC[C@H](O)[C@@H](O)[C@H](O[C@@H]2O[C@H](CO)[C@H](O)[C@H](O[C@@H]3O[C@H](CO)[C@@H](O[C@@H]4O[C@H](CO)[C@H](O)[C@H](O[C@@H]5O[C@H](CO)[C@@H](O)[C@H](O)[C@H]5NC(C)=O)[C@H]4O)[C@H](O)[C@H]3NC(C)=O)[C@H]2O)[C@H](O)CO)cc1` [GlcNAcβ3Galβ4GlcNAcβ3Galβ4Glc(red)-HDA], the “binding activity of neoglycolipid with regard to Helicobacter pylori” value (“binding activity of neoglycolipid” for short) (Helicobacter pylori [1]) was “clear binding activity”.

In the case of GlcNAcβ3Galβ4GlcNAc(red)-HDA, the “binding activity of neoglycolipid” value (Helicobacter pylori [1]) is reported as “weakly binding or inactive”.

With GlcNAcβ3Galβ4GlcNAcβ3Galβ4GlcβCer the “lowest amount of glycolipid giving a positive response on TLC plates” value (“lowest amount” below) (Helicobacter pylori [1]) was 0.039 nmol/spot, the “binding of Helicobacter pylori to the glycosphingolipid on TLC plates” value (shortened to “binding of Helicobacter pylori … on TLC plates”) (Helicobacter pylori [1]) was “binding-active; also recorded: high affinity” and the “binding of Helicobacter pylori … on TLC plates” value (Helicobacter pylori [1]; listed as five-sugar glycosphingolipid from rabbit thymus) was “equally active”. The “binding of Helicobacter pylori … on TLC plates” value (Helicobacter pylori [1]; listed as pentaglycosylceramide) was “strong activity; also recorded: highly active; also recorded: most active species”, the “binding of Helicobacter pylori … on TLC plates” value (Helicobacter pylori [1]; listed as pentaglycosylceramides) was “displayed binding activity” and the binding frequency (Helicobacter pylori [1]) was roughly 90%.

For GlcAβ3Galβ4GlcNAcβ3Galβ4GlcβCer, the “binding of Helicobacter pylori … on TLC plates” value (Helicobacter pylori [1]) was “binding active”.

With GalNAcα3Galβ4GlcNAcβ3Galβ4GlcβCer the “binding of Helicobacter pylori … on TLC plates” value (Helicobacter pylori [1]) was “bind Helicobacter pylori” and the “binding of Helicobacter pylori … on TLC plates” value (Helicobacter pylori [1]; listed as GalNAcα3 Galβ4GlcNAcβ3Galβ4GlcβCer) was “binding was also found”.

With Galβ4GlcNAcβ3Galβ4GlcNAcβ3Galβ4GlcβCer the “lowest amount” value (Helicobacter pylori [1]) was roughly 0.2 nmol/spot, the “binding of Helicobacter pylori … on TLC plates” value (Helicobacter pylori [1]) was “weaker binding; also recorded: weaker activity” and the “binding of Helicobacter pylori … on TLC plates” value (Helicobacter pylori [1]; listed as Galβ4GlcNAcβ3Galβ4-GlcNAcβ3Galβ4GlcβCer) was “binding-active; also recorded: reduced affinity”. The “binding of Helicobacter pylori … on TLC plates” value (Helicobacter pylori [1]; listed as hexaglycosylceramides) was “displayed binding activity” and the binding frequency (Helicobacter pylori [1]) was roughly 90%.

In the case of GlcNAcβ3Galβ4GlcNAcβ6GlcNAc(red)-HDA, the “binding activity of neoglycolipid” value (Helicobacter pylori [1]) is reported as “strong binding activity” and the “binding activity of neoglycolipid” value (Helicobacter pylori [1]; listed as GlcNAcβ3Galβ4GlcNAcβ6GlcNAc) is reported as “high affinity binding”.

In the case of Galα3Galβ4GlcNAcβ3Galβ4Glc(red)-HDA, the “binding activity of neoglycolipid” value (Helicobacter pylori [1]) is reported as “clear binding activity”.

In the case of Galα3Galβ4GlcNAcβ3Galβ4GlcβCer, the “binding of Helicobacter pylori … on TLC plates” value (Helicobacter pylori [1]) is reported as “bind Helicobacter pylori”, the “binding of Helicobacter pylori … on TLC plates” value (Helicobacter pylori [1]; listed as B5) is reported as “binding” and the “binding of Helicobacter pylori … on TLC plates” value (Helicobacter pylori [1]; listed as B5 glycosphingolipid) is reported as “equally active”. For the same compound, the “binding of Helicobacter pylori strain 032 to purified glycosphingolipids (FIGS. 7A and 7B)” value (from here on “binding … (FIGS. 7A and 7B)”) (Helicobacter pylori [1]) was “binding-active”.

For sialyl-lactose, the “inhibition of Helicobacter pylori binding to human gastrointestinal cell lines” value [2] is listed as “inhibits” and the “efficacy in rhesus monkey animal model of the infection” value (Helicobacter pylori [3]) is listed as “effective”.

With “NeuAcα3GalNAcβ3Galβ4GlcNAcβ3Galβ4Glcβ1Cer [NeuAc-x2]” the “binding of Helicobacter pylori … on TLC plates” value (Helicobacter pylori [1]; listed as Neu5Acα3GalNAcβ3Galβ4GlcNAcβ3Galβ4GlcβCer) was “did not appear to bind”, the “binding of Helicobacter pylori … on TLC plates” value (Helicobacter pylori [1]; listed as NeuAcα3GalNAcβ3Galβ4GlcNAcβ3Galβ4GlcβCer) was “non-binding” and the “binding of Helicobacter pylori … on TLC plates” value (Helicobacter pylori [1]; listed as no. 24) was “complete loss of binding”. The “binding … (FIGS. 7A and 7B)” value (Helicobacter pylori [1]) was “non-binding”.

In the case of “Galα3Galβ4GlcNAcβ3Galβ4GlcNAcβ3Galβ4GlcβCer”, the “binding of Helicobacter pylori … on TLC plates” value (Helicobacter pylori [1]) is reported as “higher activity” and the “binding of Helicobacter pylori … on TLC plates” value (Helicobacter pylori [1]; listed as no. 28) is reported as “observed binding”.

For Galα3Galβ4GlcNβ3Galβ4GlcβCer, the “binding of Helicobacter pylori … on TLC plates” value (Helicobacter pylori [1]) was “not binding”, the “binding of Helicobacter pylori … on TLC plates” value (Helicobacter pylori [1]; listed as Galα3Galβ4GlcNH2βGalβ4GlcβCer) was “non-binding” and the “binding of Helicobacter pylori … on TLC plates” value (Helicobacter pylori [1]; listed as no. 14) was “loss of bacterial binding”.

For GlcNAcβ3Galβ4GlcβCer, the “binding of Helicobacter pylori … on TLC plates” value (Helicobacter pylori [1]) was “not binding” and the “binding of Helicobacter pylori … on TLC plates” value (Helicobacter pylori [1]; listed as triglycosylceramide) was “inactive”.

For “GalNAcβ3Galβ3Galβ4GlcNAcβ3Galβ4Glcβ3Cer [GalNAcβ3-B5]”, the “binding of Helicobacter pylori … on TLC plates” value (Helicobacter pylori [1]) was “non-binding”, the “binding of Helicobacter pylori … on TLC plates” value (Helicobacter pylori [1]; listed as GalNAcβ3Galβ3Galβ4GlcNAcβ3Galβ4Glcβ3Cer) was “did not appear to bind” and the “binding of Helicobacter pylori … on TLC plates” value (Helicobacter pylori [1]; listed as no. 25) was “complete loss of binding”.

For “maltoheptaose(red)-HDA [reference compound]”, the “binding activity of neoglycolipid” value (Helicobacter pylori [1]) was “weakly binding or inactive”.

In the case of GalNAcβ3Galβ4GlcNAcβ3Galβ4GlcβCer, the “binding of Helicobacter pylori … on TLC plates” value (Helicobacter pylori [1]) is reported as “bind Helicobacter pylori”, the “binding of Helicobacter pylori … on TLC plates” value (Helicobacter pylori [1]; listed as x2 GSL) is reported as “binding” and the “binding … (FIGS. 7A and 7B)” value (Helicobacter pylori [1]) is reported as “binding was also found”.

For “Galα3(Fucα2)Galβ4GlcNAcβ3Galβ4Glcβ1Cer [B6-2]”, the “binding of Helicobacter pylori … on TLC plates” value (Helicobacter pylori [1]) was “non-binding; also recorded: inactive” and the “binding of Helicobacter pylori … on TLC plates” value (Helicobacter pylori [1]; listed as Galα3(Fucα2)Galβ4GlcNAcβ3Galβ4Glcβ3Cer) was “non-binding”.

For “NeuGcα3Galβ4GlcNAcβ3Galβ4GlcNAcβ3Galβ4GlcβCer”, the “binding by Helicobacter pylori isolates” value (Helicobacter pylori [1]; about 60 isolates tested) was “bound by most Helicobacter pylori isolates” and the “binding of Helicobacter pylori … on TLC plates” value (Helicobacter pylori [1]) was “weaker binding”.

With “Galβ4GlcNAcβ3(Galβ4GlcNAcβ6)Galβ4GlcβCer” the “binding of Helicobacter pylori … on TLC plates” value (Helicobacter pylori [1]) was “destroyed” and the “binding of Helicobacter pylori … on TLC plates” value (Helicobacter pylori [1]; listed as glycosphingolipid from bovine buttermilk) was “non-binding”.

In the case of Galβ4GlcNAcβ3Galβ4GlcβCer, the “lowest amount” value (Helicobacter pylori [1]) is reported as roughly 0.3 nmol/spot, the “binding of Helicobacter pylori … on TLC plates” value (Helicobacter pylori [1]) is reported as “binding is weaker” and the “binding of Helicobacter pylori … on TLC plates” value (Helicobacter pylori [1]; listed as tetraglycosylceramides) is reported as “displayed binding activity”. For the same compound, the “binding … (FIGS. 7A and 7B)” value (Helicobacter pylori [1]) was “binding”.

With `CC(=O)N[C@H]1[C@H](OC[C@H]2OC(O)[C@H](O)[C@@H](O)[C@H]2O)O[C@H](CO)[C@@H](O[C@@H]2O[C@H](CO)[C@H](O)[C@H](O[C@@H]3O[C@H](CO)[C@@H](O)[C@H](O)[C@H]3NC(C)=O)[C@H]2O)[C@@H]1O` (stereo partly drawn) [GlcNAcβ3Galβ4GlcNAcβ6Gal] the “binding activity of neoglycolipid” value (Helicobacter pylori [1]) was “some binding activity”.

In the case of Galβ4GlcNβ3Galβ4GlcβCer, the “binding of Helicobacter pylori … on TLC plates” value (Helicobacter pylori [1]) is reported as “not binding” and the “binding of Helicobacter pylori … on TLC plates” value (Helicobacter pylori [1]; listed as no. 6) is reported as “loss of bacterial binding”.

For “Glc(A-methylamide)β3Galβ4GlcNAcβ3Galβ4GlcβCer”, the “binding of Helicobacter pylori … on TLC plates” value (Helicobacter pylori [1]) was “very strong binding”.

With Glcβ3Galβ4GlcNAcβ3Galβ4GlcβCer the “binding of Helicobacter pylori … on TLC plates” value (Helicobacter pylori [1]) was “strong binding”.

In the case of Fucα2Galβ4GlcNAcβ3Galβ4Glcβ1Cer [H5-2], the “binding of Helicobacter pylori … on TLC plates” value (Helicobacter pylori [1]) is reported as “absence of binding” and the “binding of Helicobacter pylori … on TLC plates” value (Helicobacter pylori [1]; listed as HS-2) is reported as “inactive”.
